Data published in paper PMC3185571 (Viruses, 2010).
Like-named read-outs stand apart in the source and are kept apart here.

Assays:
[1] = target: neuraminidase of B/Memphis/20/1996, B Seasonal, WT (Influenza B virus, UniProt C7FPS7); format: biochemical; details: read-out: Mean IC50 ± SD
[2] = target: neuraminidase of seasonal influenza A(H3N2) virus isolates (Influenza A virus, UniProt X2GK54); format: biochemical
[3] = target: neuraminidase of A/California/07/2009, H1N1 Pandemic, WT (Influenza A virus (A/California/07/2009(H1N1)), UniProt C7FH46); format: biochemical, 2009 pandemic H1N1 influenza virus; details: read-out: Mean IC50 ± SD
[4] = target: neuraminidase of A/England/412/2008 (H1N1), H275H/Y mix; format: biochemical, influenza A(H1N1) virus
[5] = target: neuraminidase of A/Washington/10/2008, A (H1N1) Seasonal, WT (Influenza A virus, UniProt G3LYQ1); format: biochemical; details: read-out: Mean IC50 ± SD
[6] = target: neuraminidase of Pandemic H1N1 virus isolates (Influenza A virus, UniProt C7FH46); format: biochemical, 2009 pandemic H1N1 influenza virus
[7] = target: neuraminidase of 2009 pandemic H1N1 H275 wildtype virus isolates (Influenza A virus, UniProt C3W5S3); format: biochemical, 2009 pandemic H1N1 influenza virus
[8] = target: neuraminidase of seasonal influenza A(H1N1) H275 wildtype virus isolates (Influenza A virus, UniProt A8C8J7); format: biochemical
[9] = target: neuraminidase of seasonal influenza B virus isolates (Influenza B virus, UniProt U5XBU0); format: biochemical
[10] = target: neuraminidase of A/Washington/01/2007, A (H3N2) Seasonal, WT (Influenza A virus, UniProt A7UPN3); test: biochemical
[11] = system: neuraminidase of B/New Jersey/02/2009; format: biochemical, influenza B virus
[12] = system: neuraminidase of seasonal influenza A(H1N1) viruses; format: biochemical, influenza A(H1N1) virus
[13] = system: neuraminidase of B/Okinawa/10/2009; format: biochemical, influenza B virus
[14] = read-out: IC50 Statistical Cutoff (X0.75 + 3IQR)
[15] = read-out: IC50 X0.75 (75th Percentile)

For CCC(CC)[C@H](NC(C)=O)[C@@H]1[C@H](O)[C@@H](C(=O)O)C[C@H]1N=C(N)N [Peramivir, peramivir], the IC50 [1] was 0.31 nM, the IC50 ([2]; read-out: IC50 Mean (±SD)) was 0.17 ± 0.1 nM and the IC50 ([2]; read-out: IC50 Median) was 0.14 nM. The IC50 ([2]; read-out: IC50 Range) was 0.05 to 0.94 nM, the IC50 [2, 14] was 0.4 nM and the IC50 [2, 15] was 0.19 nM. For the same compound, the IC50 [3] was 0.06 nM, the IC50 [4] was 0.51 nM and the IC50 [5] was 0.09 nM. For the same compound, the “susceptibility in NI assay” value [6] was “sensitive”, the IC50 ([7]; read-out: IC50 Mean (±SD)) was 0.08 ± 0.04 nM and the IC50 ([7]; read-out: IC50 Median) was 0.07 nM. For the same compound, the IC50 ([7]; read-out: IC50 Range) was 0.03 to 0.35 nM, the IC50 [7, 14] was 0.22 nM and the IC50 [7, 15] was 0.1 nM. For the same compound, the IC50 ([8]; read-out: IC50 Mean (±SD)) was 0.1 nM, the IC50 ([8]; read-out: IC50 Median) was 0.1 nM and the IC50 ([8]; read-out: IC50 Range) was 0.05 to 0.17 nM. The IC50 [8, 14] was 0.28 nM, the IC50 [8, 15] was 0.13 nM and the “susceptibility in NI assay” value [9] was “sensitive”. It also gave an IC50 ([9]; read-out: IC50 Mean (±SD)) of 0.56 nM, an IC50 ([9]; read-out: IC50 Median) of 0.56 nM and an IC50 ([9]; read-out: IC50 Range) of 0.24 to 1.1 nM. The IC50 [9, 14] was 1.37 nM, the IC50 [9, 15] was 0.68 nM and the IC50 ([10]; read-out: Mean IC50 ± SD) was 0.12 nM.

With CC(=O)N[C@H]1[C@H]([C@H](O)[C@H](O)CO)OC(C(=O)O)=C[C@@H]1N=C(N)N [Zanamivir, zanamivir] the “susceptibility in NI assay” value [2] was “sensitive”, the IC50 [3] was 0.26 nM and the “susceptibility in NI assay” value [6] was “sensitive”. For the same compound, the “susceptibility in NI assay” value [11] was “reduced susceptibility”, the “susceptibility in NI assay” value [12] was “sensitive” and the IC50 [10] was 0.47 nM. The “susceptibility in NI assay” value [13] was “reduced susceptibility”.
